Measured values reported in PMC12671136, “Antimicrobial peptides disrupting the bacterial membrane reduce Salmonella colonization in chickens” (Microbiology Spectrum, 2025).
≈ marks a conversion by molar mass, not a printed value. Peptide text beside a SMILES is read from it.

Experiments:
Type in all cases: cell-based
[1] = system: Salmonella Typhimurium (ST); conditions: for MIC: murium (ST, 12 h)
Procedure: (§1) The inhibitory effect of the peptides was assessed as described previously ([23]). ST was grown overnight and adjusted to 5 × 10^5 CFU/ml, and 100 µL of this measured concentration was placed into the wells of a 96-well plate. Peptides P1–P6 were added to the well at 12 mM concentration, and the plate was incubated in a TECAN Sunrise^TM absorbance microplate reader at 37°C, with kinetic absorbance measurements taken every 30 min for 12 h. The growth inhibitory activity was calculated with the formula (OD600 DMSO-treated well − OD600 peptide-treated well)/OD600 DMSO-treated well × 100%. Wells treated with DMSO and containing Salmonella, as well as sterile media wells without Salmonella, were used as controls. At least two independent experiments were conducted.
(§2) MIC was determined as the peptide concentration at which no increase in growth (no increase in OD) was observed, indicating complete inhibition of ST growth. Additionally, to test the efficacy of peptides against another serovar, the assay was conducted using SE, with peptides added at 15 mM and 18 mM concentrations. Following incubation (37°C, 12 h), cultures were plated on the LB agar plate to confirm the bactericidal effect. At least two independent experiments were conducted.
(§3) To analyze the perceived efficacy of arginine and lysine substitutes reported in previous studies ([36], [37]), specific amino acid residues in P1 and P2 were replaced with lysine or arginine and tested if the substitutions enhanced anti-Salmonella (ST and SE) activity. The MICs of the arginine or lysine substituted peptides ([…], […], […], KDENK, PDEKK, KDEKK) were determined as described above. At least two independent experiments were conducted.

[2] = system: Salmonella Enteritidis (SE); conditions: 12 h
Procedure: as §1, §2, §3

[3] = system: Salmonella Albany
Procedure: (§4) To further test the spectrum of the peptides’ anti-Salmonella capabilities, eight additional Salmonella serovars commonly implicated in foodborne illness (S. Anatum, S. Albany, S. Brenderup, S. Javiana, S. Heidelberg, S. Muenchen, S. Newport, S. Saintpaul) were investigated (Table S1). P1, P2, and P4 (selected based on dose-response assay results) were added to the assay at their MICs to determine their effect on different serovars. Inhibition was determined using the criteria described above.

[4] = system: Salmonella Newport
Procedure: as §4

[5] = system: Salmonella Muenchen
Procedure: as §4

[6] = system: Salmonella Brenderup
Procedure: as §4

[7] = system: Salmonella Heidelberg
Procedure: as §4

[8] = system: Salmonella Saintpaul
Procedure: as §4

[9] = system: Salmonella Anatum
Procedure: as §4

[10] = system: Salmonella Javiana
Procedure: as §4

[11] = system: Salmonella Typhimurium (ST); conditions: murium (ST)
Procedure: (§5) P1, P2, and P4 were heated for 6 min at 86°C ([21]) or treated with protease proteinase K (200 µg/ml) at 50°C for 30 min ([26]). Afterward, the treated and/or heated peptides at their respective MICs were evaluated in the inhibition assay with Salmonella. The protocol from above using the TECAN microplate reader was followed with the same controls.

[12] = system: Salmonella Enteritidis (SE)
Procedure: as §5

SMILES | MIC [1] | MIC [2] | Efficacy against Salmonella Albany (concentration inhibiting completely, MIC) [3] | Efficacy against Salmonella Newport (concentration inhibiting completely, MIC) [4] | Efficacy against Salmonella Muenchen (concentration inhibiting completely, MIC) [5] | Efficacy against Salmonella Brenderup (concentration inhibiting completely, MIC) [6] | Efficacy against Salmonella Heidelberg (concentration inhibiting completely, MIC) [7] | Efficacy against Salmonella Saintpaul (concentration inhibiting completely, MIC) [8] | Efficacy against Salmonella Anatum (concentration inhibiting completely, MIC) [9] | Efficacy against Salmonella Javiana (concentration inhibiting completely, MIC) [10] | MIC (mM) against SE, No treatment [2] | MIC (mM) against ST, Heat treatment [11] | MIC (mM) against ST, Protease treatment [11] | MIC (mM) against SE, Heat treatment [12] | MIC (mM) against SE, Protease treatment [12] | further results
N=C(N)NCCC[C@H](NC(=O)[C@H](CCCNC(=N)N)NC(=O)[C@H](CCC(=O)O)NC(=O)[C@H](CCC(N)=O)NC(=O)[C@H](CCCNC(=N)N)NC(=O)[C@H](CCCNC(=N)N)NC(=O)[C@@H]1CCCN1C(=O)[C@@H](N)CC(N)=O)C(=O)O (H-NPRRQERR-OH) | 15 mM (≈ 16.7 mg/mL) | 18 mM (≈ 20 mg/mL) | – | – | – | – | – | – | – | – | – | – | – | – | – | –
N=C(N)NCCC[C@H](NC(=O)[C@H](CCCNC(=N)N)NC(=O)[C@H](CCC(=O)O)NC(=O)[C@H](CCCNC(=N)N)NC(=O)[C@H](CCCNC(=N)N)NC(=O)[C@H](CCCNC(=N)N)NC(=O)[C@@H]1CCCN1C(=O)[C@@H](N)CC(N)=O)C(=O)O (H-NPRRRERR-OH) | 15 mM (≈ 17.1 mg/mL) | >18 mM | – | – | – | – | – | – | – | – | – | – | – | – | – | –
N=C(N)NCCC[C@H](NC(=O)[C@H](CCCNC(=N)N)NC(=O)[C@H](CCC(=O)O)NC(=O)[C@H](CCCNC(=N)N)NC(=O)[C@H](CCCNC(=N)N)NC(=O)[C@H](CO)NC(=O)[C@@H]1CCCN1C(=O)[C@@H](N)CC(N)=O)C(=O)O (H-NPSRRERR-OH) | >18 mM | >18 mM | – | – | – | – | – | – | – | – | – | – | – | – | – | –
NCCCC[C@H](NC(=O)[C@H](CCCCN)NC(=O)[C@H](CCC(=O)O)NC(=O)[C@H](CC(=O)O)NC(=O)[C@@H](N)CCCCN)C(=O)O [KDEKK] (H-KDEKK-OH) | 15 mM (≈ 9.7 mg/mL) | 15 mM (≈ 9.7 mg/mL) | – | – | – | – | – | – | – | – | – | – | – | – | – | –
NCCCC[C@H](NC(=O)[C@H](CC(N)=O)NC(=O)[C@H](CCC(=O)O)NC(=O)[C@H](CC(=O)O)NC(=O)[C@@H](N)CCCCN)C(=O)O [KDENK] (H-KDENK-OH) | 12 mM (≈ 7.59 mg/mL) | 12 mM (≈ 7.59 mg/mL) | – | – | – | – | – | – | – | – | – | – | – | – | – | –
NCCCC[C@H](NC(=O)[C@H](CCCCN)NC(=O)[C@H](CCC(=O)O)NC(=O)[C@H](CC(=O)O)NC(=O)[C@@H]1CCCN1)C(=O)O [PDEKK] (H-PDEKK-OH) | 15 mM (≈ 9.24 mg/mL) | – | – | – | – | – | – | – | – | – | – | – | – | – | – | –
CC(C)[C@H](N)C(=O)N[C@@H](Cc1c[nH]cn1)C(=O)N[C@H](C(=O)N[C@@H](C)C(=O)N1CCC[C@H]1C(=O)N[C@@H](CCCCN)C(=O)O)[C@@H](C)O [Peptide P3] (H-VHTAPK-OH; N-terminus and C-terminus assumed) | – | – | – | – | – | – | – | – | – | – | – | – | – | – | – | Complete inhibition of ST growth ([1]; peptide 6, 12, 15 and 18 mM, 12 h, 37°C): Neither P3 nor P4 completely inhibited ST

More lines, main results first:

MIC [1] | MIC [2] | Efficacy against Salmonella Albany (concentration inhibiting completely, MIC) [3] | Efficacy against Salmonella Newport (concentration inhibiting completely, MIC) [4] | Efficacy against Salmonella Muenchen (concentration inhibiting completely, MIC) [5] | Efficacy against Salmonella Brenderup (concentration inhibiting completely, MIC) [6] | Efficacy against Salmonella Heidelberg (concentration inhibiting completely, MIC) [7] | Efficacy against Salmonella Saintpaul (concentration inhibiting completely, MIC) [8] | Efficacy against Salmonella Anatum (concentration inhibiting completely, MIC) [9] | Efficacy against Salmonella Javiana (concentration inhibiting completely, MIC) [10] | MIC (mM) against SE, No treatment [2] | MIC (mM) against ST, Heat treatment [11] | MIC (mM) against ST, Protease treatment [11] | MIC (mM) against SE, Heat treatment [12] | MIC (mM) against SE, Protease treatment [12] | SMILES | further results
– | – | 18 mM | 18 mM | 18 mM | 18 mM | 18 mM | 18 mM | 18 mM | 18 mM | 18 mM (≈ 18.8 mg/mL) | 18 mM (≈ 18.8 mg/mL) | 18 mM (≈ 18.8 mg/mL) | 18 mM (≈ 18.8 mg/mL) | 18 mM (≈ 18.8 mg/mL) | N=C(N)NCCC[C@H](NC(=O)[C@H](CCCNC(=N)N)NC(=O)[C@H](CCC(=O)O)NC(=O)[C@H](CCC(N)=O)NC(=O)[C@H](CCCNC(=N)N)NC(=O)[C@H](CO)NC(=O)[C@@H]1CCCN1C(=O)[C@@H](N)CC(N)=O)C(=O)O [Peptide P1] (H-NPSRQERR-OH) | –
– | – | 15 mM | 15 mM | 15 mM | 15 mM | 15 mM | 15 mM | 15 mM | 15 mM | 15 mM (≈ 9.02 mg/mL) | 15 mM (≈ 9.02 mg/mL) | 15 mM (≈ 9.02 mg/mL) | 15 mM (≈ 9.02 mg/mL) | 15 mM (≈ 9.02 mg/mL) | NCCCC[C@H](NC(=O)[C@H](CC(N)=O)NC(=O)[C@H](CCC(=O)O)NC(=O)[C@H](CC(=O)O)NC(=O)[C@@H]1CCCN1)C(=O)O [Peptide P2] (H-PDENK-OH) | –
– | – | 18 mM | 18 mM | 18 mM | 18 mM | 18 mM | 18 mM | 18 mM | 18 mM | 18 mM (≈ 16 mg/mL) | 18 mM (≈ 16 mg/mL) | 18 mM (≈ 16 mg/mL) | 18 mM (≈ 16 mg/mL) | 18 mM (≈ 16 mg/mL) | CSCC[C@H](N)C(=O)N[C@@H](CC(C)C)C(=O)N[C@@H](CC(N)=O)C(=O)N[C@@H](CCC(=O)O)C(=O)N[C@@H](CCCNC(=N)N)C(=O)N[C@H](C(=O)N[C@@H](CCCCN)C(=O)O)C(C)C [Peptide P4] (H-MLNERVK-OH) | –
